# Assay results taken from patent US20230096978A1, “MOR RECEPTOR AGONIST COMPOUND, PREPARATION METHOD THEREFOR, AND USE THEREOF” (CHENGDU EASTON BIOPHARMACEUTICALS CO., LTD., priority 2020, published 2023).
# “And” between values parts separate entries of the source, which are not always exact repeats. Identical values can stand only once.
# Target: T1, MOR (Mu opioid Receptor) (Homo sapiens, UniProt P35372)
# T1 construct: expressed in transfected cells
# Assay: cAMP agonistic activity assay, MOR stably transfected cell line
# Format: cell-based
# Details: agonistic effect, cAMP assay, μ opioid receptor; read-out: EC50 μ
# Method: (§1) 1. Test purpose: to detect the agonistic activity of compound samples utilizing MOR (Mu opioid Receptor), KOR(Kappa opioid receptor), and DOR (Delta Opioid Receptor) stably transfected cell lines and using the established cAMP assay detection platform.
# (§2) a. All samples were dissolved with DMSO to a storage concentration of 30 mM.
# (§3) b. A sample dilution sequence was prepared on a 384-well LDV plate. The first concentration point is 6 mM, with a 3.162-fold serial dilution and a total of 11 concentration points.
# (§4) c. The sample dilution sequence was transferred to an test plate (Corning-3824) using the Echo machine, corresponding to transfer of 50 nL per well.
# (§5) d. 50 nL of HPE or ZPE was transferred to the corresponding location of the test plate using the Echo machine.
# (§6) 2.2 Test operation of cAMP agonistic activity detection
# (§7) a. Assay buffer and stimulation buffer (STB) required for the test were formulated.
# (§8) b. 5 μL of STB was firstly added to each well of the test plate (with 50 nL of compound already in the well), and then 5 μL of cell suspension was added thereto.
# (§9) c. The test plate was incubated in a constant temperature incubator at 37° C.
# (§10) d. A standard concentration curve of cAMP was created. The first concentration point was 2848 nM, with a 4-fold serial dilution and a total of 16 detection concentrations, and each concentration point was in triplicate.
# (§11) e. cAMP detection reagent (Cisbio #62AM4PEJ) was added to the sample test plate and cAMP standard concentration test plate. 5 μL of D2 reagent was added first, and then 5 μL of Cryptate reagent was added.
# (§12) f. The test plates were read on the Envision after being left for 60 minutes at room temperature.
# T1 sequence (P35372 whole entry, species assumed): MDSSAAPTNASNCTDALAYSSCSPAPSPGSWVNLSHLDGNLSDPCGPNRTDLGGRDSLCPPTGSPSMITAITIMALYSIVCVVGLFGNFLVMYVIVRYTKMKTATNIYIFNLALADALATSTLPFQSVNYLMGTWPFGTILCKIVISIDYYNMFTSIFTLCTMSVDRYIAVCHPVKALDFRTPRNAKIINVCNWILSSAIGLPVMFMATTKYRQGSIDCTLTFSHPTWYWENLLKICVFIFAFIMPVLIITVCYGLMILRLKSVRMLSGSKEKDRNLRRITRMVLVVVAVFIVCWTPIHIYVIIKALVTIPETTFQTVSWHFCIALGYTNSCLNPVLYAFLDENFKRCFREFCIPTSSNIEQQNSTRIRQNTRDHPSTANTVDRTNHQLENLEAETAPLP
row,Compound,EC50 [µM]
1,c1ccc([C@]2(CCNCc3coc4ccc(O[C@@H]5CCOC5)cc34)CCOC3(CCCC3)C2)nc1 [Example 3],0.00056
2,Fc1ccc([C@]2(CCNCc3ccccc3-c3ccncc3)CCOC3(CCCC3)C2)cc1 [Example 4],0.0045

# Same assay, conditions: ratio of EC50 to TRV130
row,Compound,EC50 against μ receptor relative to that of TRV130
1,c1ccc([C@]2(CCNCc3coc4ccc(O[C@@H]5CCOC5)cc34)CCOC3(CCCC3)C2)nc1 [Example 3],about 1/10
2,Fc1ccc([C@]2(CCNCc3ccccc3-c3ccncc3)CCOC3(CCCC3)C2)cc1 [Example 4],about 1/10

# Test system: colonic motility (glass bead expulsion) in mice
# Assay: Mouse colonic glass bead expulsion time test
# Format: in vivo
# Details: C57BL/6 mice, 1 mg/kg single tail vein injection, beads inserted 20 min after administration, limit 120 min, Mean ± S.E.M., n = 10
# Method: 1. Test purpose: to test the effect of the test compound on the expulsion time of colonic glass beads from mice, and to preliminarily investigate its inhibitory effect on colonic motility.
# Administered via tail vein injection at an equal dose of 1 mg/kg;
# After 6-7 days of adaptive feeding of C57BL/6 mice, the animals fasted with free access to water for 12-16 hours and then randomly divided into 10 groups, 10 mice per group. Each group employed a single administration via tail vein, and the administration volume was 10 mL/kg. The solvent control group was given a vehicle (normal saline) via tail vein. 20 min after the administration, glass beads preheated to 37° C. with a diameter of 2 mm were pushed into the rectum at a distance of 2 cm through the anus. Timing was immediately started and the animals were placed individually in the observation cage to observe the time for the glass beads to be expulsed (the observation time limit was 120 min). If the glass beads had not been expulsed by the end of the observation period, the animals were euthanized and the rectum was dissected to confirm that the glass beads were still in the intestinal tract.
# Colonic Expulsion Rate (CER)=number of animals that successfully expulsed glass beads during the observation period/total number of animals in this group×100%;
# Expulsion Time Prolonging Rate (ETPR)=(mean expulsion time of test sample group—mean expulsion time of solvent control group)/mean expulsion time of solvent control group×100%;
# Percent Maximum Possible Effect (% Maximum Possible Effect, Percent MPE)=(mean expulsion time of test sample group—mean expulsion time of solvent control group)/(120-mean expulsion time of solvent control group)×100%; Calculation and related statistical processing were performed on the test data using Microsoft Office Excel 2007 and GraphPad Prism software. Unless otherwise specified, the data were shown as mean±standard error (Mean±S.E.M.), and the comparison between groups was performed by one-way ANOVA, and the Dunnett's method was used for pairwise comparison test.
row,Compound,Mean Expulsion Time
1,c1ccc([C@]2(CCNCc3coc4ccc(O[C@@H]5CCOC5)cc34)CCOC3(CCCC3)C2)nc1 [Example 3],18.99 ± 6.55^※※♦♦ min
2,Fc1ccc([C@]2(CCNCc3ccccc3-c3ccncc3)CCOC3(CCCC3)C2)cc1 [Example 4],19.13 ± 3.93^※※♦♦ min
3,"COc1ccsc1CNCC[C@@]1(c2ccccn2)CCOC2(CCCC2)C1 [TRV130, oliceridine, reference compound]",37.57 ± 4.31^※※ min

# Same assay, conditions: C57BL/6 mice, 1 mg/kg single tail vein injection, n = 10
row,Compound,Percent Maximum Possible Effect (Percent MPE) [%]
1,c1ccc([C@]2(CCNCc3coc4ccc(O[C@@H]5CCOC5)cc34)CCOC3(CCCC3)C2)nc1 [Example 3],12.91
2,Fc1ccc([C@]2(CCNCc3ccccc3-c3ccncc3)CCOC3(CCCC3)C2)cc1 [Example 4],13.04
3,"COc1ccsc1CNCC[C@@]1(c2ccccn2)CCOC2(CCCC2)C1 [TRV130, oliceridine, reference compound]",28.93

# Same assay, conditions: C57BL/6 mice, 1 mg/kg single tail vein injection, relative to solvent control, n = 10
row,Compound,Expulsion Time Prolonging Rate (ETPR) [%]
1,c1ccc([C@]2(CCNCc3coc4ccc(O[C@@H]5CCOC5)cc34)CCOC3(CCCC3)C2)nc1 [Example 3],373.57
2,Fc1ccc([C@]2(CCNCc3ccccc3-c3ccncc3)CCOC3(CCCC3)C2)cc1 [Example 4],377.06
3,"COc1ccsc1CNCC[C@@]1(c2ccccn2)CCOC2(CCCC2)C1 [TRV130, oliceridine, reference compound]",836.91

# Test system: thermal radiation tail-flick pain threshold in rats
# Assay: Rat thermal radiation tail-flick pain threshold test
# Format: in vivo, SD rats
# Details: 0.7 mg/kg tail vein injection, 0.5 h after administration, Mean ± SEM, n = 10
# Method: 1. Test purpose: to measure the effect of each compound sample on the pain threshold of rats by using the rat thermal radiation tail flick method.
# Administered via tail vein injection at an equal dose of 0.7 mg/kg;
# The rats (SD rats, SPF grade, with body weight of 220-250g, purchased from Beijing Vital River Laboratory Animal Technology Co., Ltd.) were firstly fixed in a special plastic cylinder, so that their tails were exposed and drooped naturally. Test was performed after the animals were quiet. […] The measured time interval was the tail-flick response latency, which is 3 s to 5 s in normal rats, and those with greater than 5 s or less than 3 s were excluded. Then, measurement was made every 5 min, and the mean of three measurements was taken as the basic nociceptive threshold. If the animal stayed more than 10 s under analgesic effect, the irradiation was stopped and 10 s was used as the upper limit of the tail flick latency to avoid burning the skin by the too-long irradiation. After the rats were given a certain dose of the drug, the pain thresholds of the rats were measured at different times.
# After the rats were given a certain dose of the drug, the pain threshold of the rats was measured at 0.5 h, 1 h, 2 h, and 3 h. The maximum percentage of analgesia (% MPE) after administration was calculated, of which the calculation formula was as follows: MPE(%)=(pain threshold after administration−pain threshold before administration)/(10s−pain threshold before administration))×100%
row,Compound,Maximum percentage of analgesia (MPE) 0.5 h [%]
1,c1ccc([C@]2(CCNCc3coc4ccc(O[C@@H]5CCOC5)cc34)CCOC3(CCCC3)C2)nc1 [Example 3],100.00
2,Fc1ccc([C@]2(CCNCc3ccccc3-c3ccncc3)CCOC3(CCCC3)C2)cc1 [Example 4],100.00
3,"COc1ccsc1CNCC[C@@]1(c2ccccn2)CCOC2(CCCC2)C1 [TRV130, oliceridine, reference compound]",100.00

# Same assay, conditions: 0.7 mg/kg tail vein injection, 1 h after administration, Mean ± SEM, n = 10, 0.7 mg/kg
row,Compound,Maximum percentage of analgesia (MPE) 1 h
1,c1ccc([C@]2(CCNCc3coc4ccc(O[C@@H]5CCOC5)cc34)CCOC3(CCCC3)C2)nc1 [Example 3],86.89±7.34% and 86.89%
2,Fc1ccc([C@]2(CCNCc3ccccc3-c3ccncc3)CCOC3(CCCC3)C2)cc1 [Example 4],85.79±9.25% and 85.79%
3,"COc1ccsc1CNCC[C@@]1(c2ccccn2)CCOC2(CCCC2)C1 [TRV130, oliceridine, reference compound]",88.69%

# Same assay, conditions: 0.7 mg/kg tail vein injection, 1 h after administration, Mean ± SEM, n = 10, listed as positive compound, 0.7 mg/kg
row,Compound,Maximum percentage of analgesia (MPE) 1 h [%]
1,"COc1ccsc1CNCC[C@@]1(c2ccccn2)CCOC2(CCCC2)C1 [TRV130, oliceridine, reference compound]",88.69±1.52

# Same assay, conditions: 0.7 mg/kg tail vein injection, 2 h after administration, Mean ± SEM, n = 10, 0.7 mg/kg
row,Compound,Maximum percentage of analgesia (MPE) 2 h
1,c1ccc([C@]2(CCNCc3coc4ccc(O[C@@H]5CCOC5)cc34)CCOC3(CCCC3)C2)nc1 [Example 3],82.95±8.69% and 82.95%
2,Fc1ccc([C@]2(CCNCc3ccccc3-c3ccncc3)CCOC3(CCCC3)C2)cc1 [Example 4],83.78±11.31% and 83.78%
3,"COc1ccsc1CNCC[C@@]1(c2ccccn2)CCOC2(CCCC2)C1 [TRV130, oliceridine, reference compound]",70.01%

# Same assay, conditions: 0.7 mg/kg tail vein injection, 2 h after administration, Mean ± SEM, n = 10, listed as positive compound, 0.7 mg/kg
row,Compound,Maximum percentage of analgesia (MPE) 2 h [%]
1,"COc1ccsc1CNCC[C@@]1(c2ccccn2)CCOC2(CCCC2)C1 [TRV130, oliceridine, reference compound]",70.01±8.01

# Same assay, conditions: 0.7 mg/kg tail vein injection, 3 h after administration, Mean ± SEM, n = 10, 0.7 mg/kg
row,Compound,Maximum percentage of analgesia (MPE) 3 h
1,c1ccc([C@]2(CCNCc3coc4ccc(O[C@@H]5CCOC5)cc34)CCOC3(CCCC3)C2)nc1 [Example 3],61.46±8.58% and 61.46%
2,Fc1ccc([C@]2(CCNCc3ccccc3-c3ccncc3)CCOC3(CCCC3)C2)cc1 [Example 4],60.92±2.45% and 60.92%
3,"COc1ccsc1CNCC[C@@]1(c2ccccn2)CCOC2(CCCC2)C1 [TRV130, oliceridine, reference compound]",49.32%

# Same assay, conditions: 0.7 mg/kg tail vein injection, 3 h after administration, Mean ± SEM, n = 10, listed as positive compound, 0.7 mg/kg
row,Compound,Maximum percentage of analgesia (MPE) 3 h [%]
1,"COc1ccsc1CNCC[C@@]1(c2ccccn2)CCOC2(CCCC2)C1 [TRV130, oliceridine, reference compound]",49.32±7.12

# Test system: not listed separately
# Assay: Pharmacokinetic test after single tail vein injection
# Format: in vivo
# Details: SD (Sprague-Dawley), rat, plasma, iv; SD rats, single tail vein injection 2 mg/kg, n = 3
# Method: 1. Test purpose: to investigate the pharmacokinetic parameters of each compound in the Experimental Example after a single tail vein administration.
# Administered via tail vein at an equal dose of 2 mg/kg;
# Blood was collected from the jugular vein before administration and 5 min, 10 min, 15 min, 20 min, 30 min, 45 min, 1h, 2h, 4h, 6h, 8h, 24 h after administration. 200 μL of whole blood was taken at each time point and was placed in an anticoagulation tube containing EDTA-K2, and centrifuged at 2000g at a low temperature of 4° C. to separate the plasma. The plasma was transferred to a microcentrifuge tube, and stored in a −80° C. refrigerator for later use.
# By establishing a reliable LC/MS/MS analysis method, the blood concentration of each sample was detected, and the pharmacokinetic parameters of each compound were calculated.
Compound,AUC(0-t) [ng·h/mL],Cmax [ng/mL],Tmax [min],half-life [min]
c1ccc([C@]2(CCNCc3coc4ccc(O[C@@H]5CCOC5)cc34)CCOC3(CCCC3)C2)nc1 [Example 3],532 ± 50.6,543 ± 72.8,9 ± 1.2,177 ± 20.4
Fc1ccc([C@]2(CCNCc3ccccc3-c3ccncc3)CCOC3(CCCC3)C2)cc1 [Example 4],563 ± 31.8,552 ± 48.7,10.8 ± 1.8,194 ± 6.6
"COc1ccsc1CNCC[C@@]1(c2ccccn2)CCOC2(CCCC2)C1 [TRV130, oliceridine, reference compound]",319 ± 30.6,235 ± 22.7,8.4 ± 6,56.4 ± 1.8

# Target: T2, KOR(Kappa opioid receptor) (Homo sapiens, UniProt P41145)
# T2 construct: expressed in transfected cells
# T2 sequence (P41145 whole entry): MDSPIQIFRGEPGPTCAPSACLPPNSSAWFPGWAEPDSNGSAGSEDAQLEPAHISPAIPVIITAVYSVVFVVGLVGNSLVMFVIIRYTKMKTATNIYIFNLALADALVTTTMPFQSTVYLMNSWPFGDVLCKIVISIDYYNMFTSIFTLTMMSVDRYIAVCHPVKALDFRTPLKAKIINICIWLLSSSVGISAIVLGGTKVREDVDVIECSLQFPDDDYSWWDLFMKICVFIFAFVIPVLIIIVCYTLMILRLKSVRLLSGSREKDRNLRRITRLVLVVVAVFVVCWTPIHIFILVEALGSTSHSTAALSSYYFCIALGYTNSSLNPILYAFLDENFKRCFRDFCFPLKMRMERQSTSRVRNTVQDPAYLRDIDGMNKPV
# Assay: cAMP agonistic activity assay, KOR stably transfected cell line
# Format: cell-based
# Details: not given
# Method: as §1, §2, §3, §4, §5, §6, §7, §8, §9, §10, §11, §12
row,Compound,EC50 [µM]
1,"COc1ccsc1CNCC[C@@]1(c2ccccn2)CCOC2(CCCC2)C1 [TRV130, oliceridine, reference compound]",5.77

# Same assay, conditions: agonistic effect, cAMP assay, κ opioid receptor; read-out: EC50 κ
row,Compound,EC50 [µM]
1,c1ccc([C@]2(CCNCc3coc4ccc(O[C@@H]5CCOC5)cc34)CCOC3(CCCC3)C2)nc1 [Example 3],56.8
2,Fc1ccc([C@]2(CCNCc3ccccc3-c3ccncc3)CCOC3(CCCC3)C2)cc1 [Example 4],54.5

# Target: T3, DOR (Delta Opioid Receptor) (Homo sapiens, UniProt P41143)
# T3 construct: expressed in transfected cells
# T3 sequence (P41143 whole entry): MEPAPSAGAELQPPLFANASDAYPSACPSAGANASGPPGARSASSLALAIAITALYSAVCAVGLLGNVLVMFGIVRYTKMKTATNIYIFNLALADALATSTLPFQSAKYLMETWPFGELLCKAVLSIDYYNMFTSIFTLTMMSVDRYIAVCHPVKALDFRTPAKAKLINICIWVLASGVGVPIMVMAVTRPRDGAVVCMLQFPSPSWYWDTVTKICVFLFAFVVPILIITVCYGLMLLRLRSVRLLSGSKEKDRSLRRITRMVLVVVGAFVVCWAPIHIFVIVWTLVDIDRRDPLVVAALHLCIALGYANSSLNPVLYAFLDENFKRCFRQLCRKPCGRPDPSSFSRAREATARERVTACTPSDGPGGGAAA
# Assay: cAMP agonistic activity assay, DOR stably transfected cell line
# Format: cell-based
# Details: not given
# Method: as §1, §2, §3, §4, §5, §6, §7, §8, §9, §10, §11, §12
row,Compound,EC50 [µM]
1,"COc1ccsc1CNCC[C@@]1(c2ccccn2)CCOC2(CCCC2)C1 [TRV130, oliceridine, reference compound]",3.14

# Same assay, conditions: agonistic effect, cAMP assay, δ opioid receptor; read-out: EC50 δ
row,Compound,EC50 [µM]
1,c1ccc([C@]2(CCNCc3coc4ccc(O[C@@H]5CCOC5)cc34)CCOC3(CCCC3)C2)nc1 [Example 3],32.5
2,Fc1ccc([C@]2(CCNCc3ccccc3-c3ccncc3)CCOC3(CCCC3)C2)cc1 [Example 4],42.7
